Test results taken from patent US20100298141A1, “SUBSTITUTED PYRIDINE N-OXIDE HERBICIDES” (E. I. DU PONT DE NEMOURS AND COMPANY, priority 2007, published 2010).

Columns and labels:
common chickweed = assay: Test F preemergence test; format: in vivo, Stellaria media; conditions: scale 0 to 100
Summary of the method: (§1)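 Greenhouse screen: test chemical in surfactant-containing non-phytotoxic solvent applied preemergence to sown seeds or postemergence to sugarcane plants; after 14 to 21 days each species scored visually versus controls.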

common sowthistle = assay: Test F preemergence test; format: in vivo, Sonchus oleraceous; conditions: scale 0 to 100
Summary of the method: as §1

Virginia dayflower = assay: Test F preemergence test; format: in vivo, Commelina virginica; conditions: scale 0 to 100
Summary of the method: as §1

Russian thistle = assay: Test F preemergence test; format: in vivo, Salsola kali; conditions: scale 0 to 100
Summary of the method: as §1

downy bromegrass = assay: Test D preemergence test; format: in vivo, Bromus tectorum; conditions: scale 0 to 100
Excerpt: Seeds of plant species selected from annual bluegrass (Poa annua), blackgrass (Alopecurus myosuroides), downy bromegrass (Bromus tectorum), field violet (Viola arvensis), green foxtail (Setaria viridis), Italian ryegrass (Lolium multiflorum), littleseed canarygrass (Phalaris minor), spring wheat (Triticum aestivum), wild oat (Avena fatua), […]), winter barley (Hordeum vulgare), and winter wheat (Triticum aestivum) were planted and treated preemergence with test chemicals formulated in a non-phytotoxic solvent mixture which included a surfactant. […] A dash (-) response means no test result.

Canada horseweed = assay: Test F preemergence test; format: in vivo, Conyza canadensis; conditions: scale 0 to 100
Summary of the method: as §1

barnyardgrass = assay: Test F preemergence test; format: in vivo, Echinochloa crus-galli; conditions: scale 0 to 100
Summary of the method: as §1

large crabgrass = assay: Test F preemergence test; format: in vivo, Digitaria sanguinalis; conditions: scale 0 to 100
Summary of the method: as §1

canarygrass = assay: Test C postemergence test; format: in vivo, Phalaris minor; conditions: for Plant response rating (0 to 100), Canarygrass: 31 g ai/ha; for Plant response rating, Canarygrass: scale 0 to 100, 0 no effect, 100 complete control
Summary of the method: (§2)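 Postemergence sprays of formulated test chemicals on plants 2 to 18 cm tall (1- to 4-leaf stage). Greenhouse hold for 13 to 15 days, then visual rating of each species against untreated controls; dash means no test result.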

chickweed = assay: Test C postemergence test; format: in vivo, Stellaria media; conditions: for Plant response rating (0 to 100), Chickweed: 31 g ai/ha; for Plant response rating, Chickweed: scale 0 to 100, 0 no effect, 100 complete control
Summary of the method: as §2

winter barley = assay: Test C postemergence test; format: in vivo, Hordeum vulgare; conditions: for Plant response rating (0 to 100), Barley: 31 g ai/ha; for Plant response rating, Barley: scale 0 to 100, 0 no effect, 100 complete control
Summary of the method: as §2

windgrass = assay: Test C pre-/postemergence test; format: in vivo, Apera spica-venti; conditions: Postemergence; for Plant response rating, Windgrass: scale 0 to 100, 0 no effect, 100 complete control

In the case of `Cc1cc[n+]([O-])c(S(=O)(=O)C(Cl)c2c(C(F)(F)F)nn(C)c2Cl)c1` (racemic) [Compound 22], the “Chickweed plant response rating” value (common chickweed; 62 g ai/ha, Preemergence) is reported as 100, the “Chickweed plant response rating” value (common chickweed; 125 g ai/ha, preemergence) is reported as 100 and the “Plant response rating, Chickweed” value (common chickweed; Preemergence, 16 g ai/ha) is reported as 0. For the same compound, the “Plant response rating, Chickweed” value (common chickweed; Preemergence, 31 g ai/ha) was 65, the “Sowthistle plant response rating” value (common sowthistle; 62 g ai/ha, Preemergence) was 90 and the “Sowthistle plant response rating” value (common sowthistle; 125 g ai/ha, preemergence) was 100. For the same compound, the “Plant response rating, Sowthistle” value (common sowthistle; Preemergence, 31 g ai/ha) was 90, the “Dayflower plant response rating” value (Virginia dayflower; 62 g ai/ha, Preemergence) was 40 and the “Dayflower plant response rating” value (Virginia dayflower; 125 g ai/ha, preemergence) was 100. For the same compound, the “Plant response rating, Dayflower” value (Virginia dayflower; Preemergence, 16 g ai/ha) was 0, the “Plant response rating, Dayflower” value (Virginia dayflower; Preemergence, 31 g ai/ha) was 0 and the “Russian Thistle plant response rating” value (Russian thistle; 125 g ai/ha, preemergence) was 100. The “Plant response rating, Bromegrass, Downy” value (downy bromegrass; 31 g ai/ha) was 0, the “Plant response rating, Bromegrass, Downy” value (downy bromegrass; 62 g ai/ha) was 20 and the “Plant response rating, Bromegrass, Downy” value (downy bromegrass; 125 g ai/ha) was 20. The “Plant response rating, Bromegrass, Downy” value (downy bromegrass; 250 g ai/ha) was 35, the “Horseweed plant response rating” value (Canada horseweed; 62 g ai/ha, Preemergence) was 0 and the “Horseweed plant response rating” value (Canada horseweed; 125 g ai/ha, preemergence) was 100. For the same compound, the “Plant response rating, Horseweed” value (Canada horseweed; Preemergence, 16 g ai/ha) was 0, the “Plant response rating, Horseweed” value (Canada horseweed; Preemergence, 31 g ai/ha) was 0 and the “Barnyardgrass plant response rating” value (barnyardgrass; 62 g ai/ha, Preemergence) was 75. For the same compound, the “Barnyardgrass plant response rating” value (barnyardgrass; 125 g ai/ha, preemergence) was 95, the “Plant response rating, Barnyardgrass” value (barnyardgrass; Preemergence, 16 g ai/ha) was 10 and the “Plant response rating, Barnyardgrass” value (barnyardgrass; Preemergence, 31 g ai/ha) was 40. The “Crabgrass, Large plant response rating” value (large crabgrass; 62 g ai/ha, Preemergence) was 70, the “Crabgrass, Large plant response rating” value (large crabgrass; 125 g ai/ha, preemergence) was 70 and the “Plant response rating, Crabgrass, Large” value (large crabgrass; Preemergence, 16 g ai/ha) was 0. The “Plant response rating, Crabgrass, Large” value (large crabgrass; Preemergence, 31 g ai/ha) was 50.
In the case of `Cc1cc[n+]([O-])c(S(=O)(=O)Cc2c(C(F)(F)F)nn(C)c2OC(F)F)c1` [Compound 2], the “Plant response rating, Chickweed” value (common chickweed; 8 g ai/ha, preemergence) is reported as 10, the “Chickweed plant response rating” value (common chickweed; 62 g ai/ha, Preemergence) is reported as 100 and the “Plant response rating, Chickweed” value (common chickweed; Preemergence, 16 g ai/ha) is reported as 80. For the same compound, the “Plant response rating, Chickweed” value (common chickweed; Preemergence, 31 g ai/ha) was 95, the “Plant response rating, Sowthistle” value (common sowthistle; 8 g ai/ha, preemergence) was 0 and the “Plant response rating, Sowthistle” value (common sowthistle; 16 g ai/ha, preemergence) was 0. The “Sowthistle plant response rating” value (common sowthistle; 62 g ai/ha, Preemergence) was 100, the “Plant response rating, Sowthistle” value (common sowthistle; Preemergence, 31 g ai/ha) was 60 and the “Plant response rating (0 to 100), Canarygrass” value (canarygrass) was 0. For the same compound, the “Plant response rating, Canarygrass” value (canarygrass; 62 g ai/ha) was 0, the “Plant response rating, Canarygrass” value (canarygrass; 125 g ai/ha) was 0 and the “Plant response rating, Canarygrass” value (canarygrass; 250 g ai/ha) was 0. For the same compound, the “Plant response rating, Dayflower” value (Virginia dayflower; 8 g ai/ha, preemergence) was 0, the “Dayflower plant response rating” value (Virginia dayflower; 62 g ai/ha, Preemergence) was 100 and the “Plant response rating, Dayflower” value (Virginia dayflower; Preemergence, 16 g ai/ha) was 0. The “Plant response rating, Dayflower” value (Virginia dayflower; Preemergence, 31 g ai/ha) was 100, the “Plant response rating (0 to 100), Chickweed” value (chickweed) was 0 and the “Plant response rating, Chickweed” value (chickweed; 62 g ai/ha) was 0. The “Plant response rating, Chickweed” value (chickweed; 125 g ai/ha) was 5, the “Plant response rating, Chickweed” value (chickweed; 250 g ai/ha) was 80 and the “Plant response rating (0 to 100), Barley” value (winter barley) was 0. For the same compound, the “Plant response rating, Barley” value (winter barley; 62 g ai/ha) was 0, the “Plant response rating, Barley” value (winter barley; 125 g ai/ha) was 0 and the “Plant response rating, Barley” value (winter barley; 250 g ai/ha) was 0. For the same compound, the “Plant response rating, Russian Thistle” value (Russian thistle; 8 g ai/ha, preemergence) was 0, the “Plant response rating, Russian Thistle” value (Russian thistle; Preemergence, 16 g ai/ha) was 0 and the “Plant response rating, Russian Thistle” value (Russian thistle; Preemergence, 31 g ai/ha) was 0. The “Plant response rating, Bromegrass, Downy” value (downy bromegrass; 31 g ai/ha) was 0, the “Plant response rating, Bromegrass, Downy” value (downy bromegrass; 62 g ai/ha) was 20 and the “Plant response rating, Bromegrass, Downy” value (downy bromegrass; 125 g ai/ha) was 50. For the same compound, the “Plant response rating, Bromegrass, Downy” value (downy bromegrass; 250 g ai/ha) was 55, the “Plant response rating, Barnyardgrass” value (barnyardgrass; 8 g ai/ha, preemergence) was 0 and the “Barnyardgrass plant response rating” value (barnyardgrass; 62 g ai/ha, Preemergence) was 100. For the same compound, the “Plant response rating, Barnyardgrass” value (barnyardgrass; Preemergence, 16 g ai/ha) was 10, the “Plant response rating, Barnyardgrass” value (barnyardgrass; Preemergence, 31 g ai/ha) was 80 and the “Plant response rating, Crabgrass, Large” value (large crabgrass; 8 g ai/ha, preemergence) was 0. For the same compound, the “Crabgrass, Large plant response rating” value (large crabgrass; 62 g ai/ha, Preemergence) was 90, the “Plant response rating, Crabgrass, Large” value (large crabgrass; Preemergence, 16 g ai/ha) was 0 and the “Plant response rating, Crabgrass, Large” value (large crabgrass; Preemergence, 31 g ai/ha) was 50. For the same compound, the “Plant response rating (0 to 100), Windgrass” value (windgrass; 31 g ai/ha) was 0, the “Plant response rating (0 to 100), Windgrass” value (windgrass; 62 g ai/ha) was 10 and the “Plant response rating, Windgrass” value (windgrass; 125 g ai/ha) was 50. For the same compound, the “Plant response rating, Windgrass” value (windgrass; 250 g ai/ha) was 70.
In the case of `Cn1nc(C(F)(F)F)c(C[S+]([O-])c2cccc[n+]2[O-])c1OC(F)F` (stereo not shown) [Compound 3], the “Plant response rating, Chickweed” value (common chickweed; 8 g ai/ha, preemergence) is reported as 25, the “Chickweed plant response rating” value (common chickweed; 62 g ai/ha, Preemergence) is reported as 100 and the “Plant response rating, Chickweed” value (common chickweed; Preemergence, 16 g ai/ha) is reported as 98. For the same compound, the “Plant response rating, Chickweed” value (common chickweed; Preemergence, 31 g ai/ha) was 100, the “Plant response rating, Sowthistle” value (common sowthistle; 8 g ai/ha, preemergence) was 0 and the “Plant response rating, Sowthistle” value (common sowthistle; 16 g ai/ha, preemergence) was 0. For the same compound, the “Sowthistle plant response rating” value (common sowthistle; 62 g ai/ha, Preemergence) was 100, the “Plant response rating, Sowthistle” value (common sowthistle; Preemergence, 31 g ai/ha) was 65 and the “Plant response rating (0 to 100), Canarygrass” value (canarygrass) was 0. For the same compound, the “Plant response rating, Canarygrass” value (canarygrass; 62 g ai/ha) was 0, the “Plant response rating, Canarygrass” value (canarygrass; 125 g ai/ha) was 0 and the “Plant response rating, Canarygrass” value (canarygrass; 250 g ai/ha) was 0. The “Plant response rating, Dayflower” value (Virginia dayflower; 8 g ai/ha, preemergence) was 0, the “Dayflower plant response rating” value (Virginia dayflower; 62 g ai/ha, Preemergence) was 90 and the “Plant response rating, Dayflower” value (Virginia dayflower; Preemergence, 16 g ai/ha) was 0. For the same compound, the “Plant response rating, Dayflower” value (Virginia dayflower; Preemergence, 31 g ai/ha) was 90, the “Plant response rating (0 to 100), Chickweed” value (chickweed) was 10 and the “Plant response rating, Chickweed” value (chickweed; 62 g ai/ha) was 70. For the same compound, the “Plant response rating, Chickweed” value (chickweed; 125 g ai/ha) was 85, the “Plant response rating, Chickweed” value (chickweed; 250 g ai/ha) was 95 and the “Plant response rating (0 to 100), Barley” value (winter barley) was 0. The “Plant response rating, Barley” value (winter barley; 62 g ai/ha) was 0, the “Plant response rating, Barley” value (winter barley; 125 g ai/ha) was 0 and the “Plant response rating, Barley” value (winter barley; 250 g ai/ha) was 0. For the same compound, the “Plant response rating, Russian Thistle” value (Russian thistle; 8 g ai/ha, preemergence) was 0, the “Russian Thistle plant response rating” value (Russian thistle; 62 g ai/ha, Preemergence) was 100 and the “Plant response rating, Russian Thistle” value (Russian thistle; Preemergence, 16 g ai/ha) was 0. The “Plant response rating, Russian Thistle” value (Russian thistle; Preemergence, 31 g ai/ha) was 35, the “Plant response rating, Bromegrass, Downy” value (downy bromegrass; 31 g ai/ha) was 0 and the “Plant response rating, Bromegrass, Downy” value (downy bromegrass; 62 g ai/ha) was 45. The “Plant response rating, Bromegrass, Downy” value (downy bromegrass; 125 g ai/ha) was 55, the “Plant response rating, Bromegrass, Downy” value (downy bromegrass; 250 g ai/ha) was 55 and the “Plant response rating, Barnyardgrass” value (barnyardgrass; 8 g ai/ha, preemergence) was 40. For the same compound, the “Barnyardgrass plant response rating” value (barnyardgrass; 62 g ai/ha, Preemergence) was 100, the “Plant response rating, Barnyardgrass” value (barnyardgrass; Preemergence, 16 g ai/ha) was 80 and the “Plant response rating, Barnyardgrass” value (barnyardgrass; Preemergence, 31 g ai/ha) was 90. For the same compound, the “Plant response rating, Crabgrass, Large” value (large crabgrass; 8 g ai/ha, preemergence) was 0, the “Crabgrass, Large plant response rating” value (large crabgrass; 62 g ai/ha, Preemergence) was 100 and the “Plant response rating, Crabgrass, Large” value (large crabgrass; Preemergence, 16 g ai/ha) was 20. For the same compound, the “Plant response rating, Crabgrass, Large” value (large crabgrass; Preemergence, 31 g ai/ha) was 70, the “Plant response rating (0 to 100), Windgrass” value (windgrass; 31 g ai/ha) was 0 and the “Plant response rating (0 to 100), Windgrass” value (windgrass; 62 g ai/ha) was 0. For the same compound, the “Plant response rating, Windgrass” value (windgrass; 125 g ai/ha) was 20 and the “Plant response rating, Windgrass” value (windgrass; 250 g ai/ha) was 70.
